“Also recorded” adds a separate entry of the source.
How the values were obtained:
[1] = target: T1, MST1 (Homo sapiens, UniProt Q13043); test: Protein kinase profiling, Mobility Shift Assay (Carna Biosciences); format: biochemical; details: read-out: % Inhibition at 1.0 μM 14
T1 construct: purchased Carna Biosciences
Experimental: (§1) Protein kinase profiling of compound 14 was executed by Carna Biosciences. Briefly, compound 14 was prepared by dissolving it in dimethyl sulfoxide (DMSO) and then further diluting it in DMSO to a concentration of […]. That stock solution was further diluted 25-fold with kinase assay buffer (20 mM HEPES, 0.01% Triton X-100, 2 mM DTT, pH 7.5) to make the final 1 μM compound 14 solution. Reference compounds for the assay controls were prepared similarly. The off-chip Mobility Shift Assay (MSA) was prepared with 5 μL of 4× compound solution, 5 μL of 4× substrate/ATP/metal solution, and 10 μL of 2× kinase solution, prepared with assay buffer (20 mM HEPES, 0.01% Triton X-100, 2 mM DTT, pH 7.5). The components were mixed and incubated in a polypropylene 384-well microplate for 1 h or 5 h at room temperature, depending on the kinase being tested. 60 μL of termination buffer (QuickScout Screening Assist MSA; Carna Biosciences) was added to the well to stop the reactions, and the mixture was applied to a LabChip3000 system (Caliper Life Sciences. The product and substrate peptide peaks were separated and quantitated. The kinase reactions were evaluated by the product ratio, calculated from the peak heights of the product (P) and substrate (S) peptides (P/(P + S)). Product ratio values for the control reaction were set as 0% inhibition, and the readout value of the background (no kinase added) was set as 100% inhibition. The percent inhibition of each test solution was then calculated as reported in Figure A. The phylogenetic tree was generated using KinMap at https://bmcbioinformatics.biomedcentral.com/articles/10.1186/s12859-016-1433-7.

[2] = target: T2, JAK3 (Homo sapiens, UniProt P52333); test: as above; format: biochemical; details: read-out: % Inhibition at 1.0 μM 14
T2 construct: purchased Carna Biosciences
Experimental: as §1

[3] = target: T3, AKT1 (Homo sapiens, UniProt P31749); test: as above; format: biochemical; details: read-out: % Inhibition at 1.0 μM 14
T3 construct: purchased Carna Biosciences
Experimental: as §1

[4] = target: T4, MER (Homo sapiens, UniProt Q12866); test: as above; format: biochemical; details: read-out: % Inhibition at 1.0 μM 14
T4 construct: purchased Carna Biosciences
Experimental: as §1

[5] = target: T5, JNK2 (Homo sapiens, UniProt P45984); test: as above; format: biochemical; details: read-out: % Inhibition at 1.0 μM 14
T5 construct: purchased Carna Biosciences
Experimental: as §1

[6] = target: T6, ROCK1 (Homo sapiens, UniProt Q13464); test: as above; format: biochemical; details: read-out: % Inhibition at 1.0 μM 14
T6 construct: purchased Carna Biosciences
Experimental: as §1

[7] = target: T7, IGF1R (Homo sapiens, UniProt P08069); test: as above; format: biochemical; details: read-out: % Inhibition at 1.0 μM 14
T7 construct: purchased Carna Biosciences
Experimental: as §1

[8] = target: T8, ABL (Homo sapiens, UniProt P00519); test: as above; format: biochemical; details: read-out: % Inhibition at 1.0 μM 14
T8 construct: purchased Carna Biosciences
Experimental: as §1

[9] = target: T9, IRAK4 (Homo sapiens, UniProt Q9NWZ3); test: as above; format: biochemical; details: read-out: % Inhibition at 1.0 μM 14
T9 construct: purchased Carna Biosciences
Experimental: as §1

[10] = target: T10, CDK2 (Homo sapiens, UniProt P24941); test: as above; format: biochemical; details: read-out: % Inhibition at 1.0 μM 14
T10 construct: purchased Carna Biosciences
Experimental: as §1

[11] = target: T11, TRKA (Homo sapiens, UniProt P04629); test: as above; format: biochemical; details: read-out: % Inhibition at 1.0 μM 14
T11 construct: purchased Carna Biosciences
Experimental: as §1

[12] = target: T12, MET (Homo sapiens, UniProt P08581); test: as above; format: biochemical; details: read-out: % Inhibition at 1.0 μM 14
T12 construct: purchased Carna Biosciences
Experimental: as §1

[13] = target: T13, SRC (Homo sapiens, UniProt P12931); test: as above; format: biochemical; details: read-out: % Inhibition at 1.0 μM 14
T13 construct: purchased Carna Biosciences
Experimental: as §1

[14] = target: T14, ITK (Homo sapiens, UniProt Q08881); test: as above; format: biochemical; details: read-out: % Inhibition at 1.0 μM 14
T14 construct: purchased Carna Biosciences
Experimental: as §1

[15] = target: T15, PKCa (Homo sapiens, UniProt P17252); test: as above; format: biochemical; details: read-out: % Inhibition at 1.0 μM 14
T15 construct: purchased Carna Biosciences
Experimental: as §1

[16] = target: T16, SYK (Homo sapiens, UniProt P43405); test: as above; format: biochemical; details: read-out: % Inhibition at 1.0 μM 14
T16 construct: purchased Carna Biosciences
Experimental: as §1

[17] = target: T17, KDR (Homo sapiens, UniProt P35968); test: as above; format: biochemical; details: read-out: % Inhibition at 1.0 μM 14
T17 construct: purchased Carna Biosciences
Experimental: as §1

[18] = target: T18, p38a (Homo sapiens, UniProt Q16539); test: as above; format: biochemical; details: read-out: % Inhibition at 1.0 μM 14
T18 construct: purchased Carna Biosciences
Experimental: as §1

[19] = target: T19, LCK (Homo sapiens, UniProt P06239); test: as above; format: biochemical; details: read-out: % Inhibition at 1.0 μM 14
T19 construct: purchased Carna Biosciences
Experimental: as §1

[20] = target: T20, AurA (Homo sapiens, UniProt O14965); test: as above; format: biochemical; details: read-out: % Inhibition at 1.0 μM 14
T20 construct: purchased Carna Biosciences
Experimental: as §1

[21] = target: T21, CSK (Homo sapiens, UniProt P41240); test: as above; format: biochemical; details: read-out: % Inhibition at 1.0 μM 14
T21 construct: purchased Carna Biosciences
Experimental: as §1

[22] = target: T22, EGFR (Homo sapiens, UniProt P00533); test: as above; format: biochemical; details: read-out: % Inhibition at 1.0 μM 14
T22 construct: purchased Carna Biosciences
Experimental: as §1

[23] = target: T23, FGFR1 (Homo sapiens, UniProt P11362); test: as above; format: biochemical; details: read-out: % Inhibition at 1.0 μM 14
T23 construct: purchased Carna Biosciences
Experimental: as §1

[24] = target: T24, Erk2 (Homo sapiens, UniProt P28482); test: as above; format: biochemical; details: read-out: % Inhibition at 1.0 μM 14
T24 construct: purchased Carna Biosciences
Experimental: as §1

[25] = target: T25, IKKb (Homo sapiens, UniProt O14920); test: as above; format: biochemical; details: read-out: % Inhibition at 1.0 μM 14
T25 construct: purchased Carna Biosciences
Experimental: as §1

[26] = target: T26, CaMK4 (Homo sapiens, UniProt Q16566); test: as above; format: biochemical; details: read-out: % Inhibition at 1.0 μM 14
T26 construct: purchased Carna Biosciences
Experimental: as §1

[27] = system: SF-1 target genes in HEK293 cells bearing tetracycline-inducible SF-1; test: RT-qPCR analysis of SF-1 target genes; format: cell-based, human; design: key to relative NR0B2 expression vs DMSO + TET control / relative StAR expression vs DMSO + TET control: ns = not significant; *p<0.05; ****p<0.0001; details: for relative CYP11A1 expression vs DMSO + TET control / relative NR0B2 expression vs DMSO + TET control / relative StAR expression vs DMSO + TET control: 24 h, HEK293 Tet-inducible SF-1

T17 sequence (P35968 20-1356): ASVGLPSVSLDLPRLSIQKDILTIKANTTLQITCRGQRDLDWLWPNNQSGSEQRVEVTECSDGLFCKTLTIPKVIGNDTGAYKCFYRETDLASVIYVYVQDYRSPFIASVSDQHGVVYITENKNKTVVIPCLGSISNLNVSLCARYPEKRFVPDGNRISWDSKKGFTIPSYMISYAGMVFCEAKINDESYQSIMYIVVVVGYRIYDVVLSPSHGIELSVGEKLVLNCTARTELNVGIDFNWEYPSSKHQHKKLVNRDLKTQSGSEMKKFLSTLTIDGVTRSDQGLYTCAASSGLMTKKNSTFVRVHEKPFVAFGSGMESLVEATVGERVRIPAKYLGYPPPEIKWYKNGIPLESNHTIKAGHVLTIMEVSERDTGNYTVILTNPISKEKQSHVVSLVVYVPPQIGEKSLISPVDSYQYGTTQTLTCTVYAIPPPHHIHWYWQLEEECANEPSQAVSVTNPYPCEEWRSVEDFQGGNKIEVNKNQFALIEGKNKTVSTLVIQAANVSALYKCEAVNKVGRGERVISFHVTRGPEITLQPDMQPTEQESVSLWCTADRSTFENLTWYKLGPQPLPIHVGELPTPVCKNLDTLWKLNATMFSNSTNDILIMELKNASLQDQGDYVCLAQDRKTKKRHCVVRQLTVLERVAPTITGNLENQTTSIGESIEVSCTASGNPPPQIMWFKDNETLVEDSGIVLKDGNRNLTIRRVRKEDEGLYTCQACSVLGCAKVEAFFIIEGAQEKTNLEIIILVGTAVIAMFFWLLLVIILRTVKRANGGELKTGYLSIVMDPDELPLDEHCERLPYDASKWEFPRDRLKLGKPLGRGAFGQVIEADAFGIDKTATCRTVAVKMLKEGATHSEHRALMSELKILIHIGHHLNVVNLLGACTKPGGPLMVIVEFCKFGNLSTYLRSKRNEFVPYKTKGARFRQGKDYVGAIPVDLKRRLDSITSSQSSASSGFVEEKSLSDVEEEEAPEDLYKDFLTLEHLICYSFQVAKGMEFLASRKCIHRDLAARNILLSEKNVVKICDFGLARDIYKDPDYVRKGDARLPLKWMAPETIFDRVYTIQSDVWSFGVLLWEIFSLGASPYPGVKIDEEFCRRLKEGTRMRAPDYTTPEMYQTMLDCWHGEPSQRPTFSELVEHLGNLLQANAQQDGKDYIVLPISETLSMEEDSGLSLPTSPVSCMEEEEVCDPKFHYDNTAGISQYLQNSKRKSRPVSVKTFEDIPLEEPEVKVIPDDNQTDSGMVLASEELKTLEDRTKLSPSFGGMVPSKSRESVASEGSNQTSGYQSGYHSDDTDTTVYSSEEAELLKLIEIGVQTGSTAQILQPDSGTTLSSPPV
T23 sequence (P11362 22-822): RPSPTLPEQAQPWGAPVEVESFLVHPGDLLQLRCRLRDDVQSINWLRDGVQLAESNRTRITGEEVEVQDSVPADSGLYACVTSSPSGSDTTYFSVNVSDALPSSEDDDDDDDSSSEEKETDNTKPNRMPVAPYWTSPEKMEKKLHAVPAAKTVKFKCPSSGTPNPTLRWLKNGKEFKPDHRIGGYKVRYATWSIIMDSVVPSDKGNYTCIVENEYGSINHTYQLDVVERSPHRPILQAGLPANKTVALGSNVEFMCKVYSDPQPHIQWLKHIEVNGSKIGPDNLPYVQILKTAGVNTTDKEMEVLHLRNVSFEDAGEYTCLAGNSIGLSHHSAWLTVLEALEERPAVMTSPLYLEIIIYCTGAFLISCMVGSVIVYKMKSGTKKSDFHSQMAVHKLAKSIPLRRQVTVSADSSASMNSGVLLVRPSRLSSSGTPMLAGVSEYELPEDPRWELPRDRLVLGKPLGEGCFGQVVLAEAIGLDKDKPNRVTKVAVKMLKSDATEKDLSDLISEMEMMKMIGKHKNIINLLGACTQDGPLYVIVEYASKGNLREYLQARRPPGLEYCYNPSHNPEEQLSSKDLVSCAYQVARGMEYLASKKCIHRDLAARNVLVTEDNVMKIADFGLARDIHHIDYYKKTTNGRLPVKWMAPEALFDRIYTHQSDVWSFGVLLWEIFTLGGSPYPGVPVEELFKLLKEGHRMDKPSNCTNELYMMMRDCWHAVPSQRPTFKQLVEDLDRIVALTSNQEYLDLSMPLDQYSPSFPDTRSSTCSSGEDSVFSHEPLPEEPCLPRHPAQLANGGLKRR
T19 sequence (P06239 whole entry): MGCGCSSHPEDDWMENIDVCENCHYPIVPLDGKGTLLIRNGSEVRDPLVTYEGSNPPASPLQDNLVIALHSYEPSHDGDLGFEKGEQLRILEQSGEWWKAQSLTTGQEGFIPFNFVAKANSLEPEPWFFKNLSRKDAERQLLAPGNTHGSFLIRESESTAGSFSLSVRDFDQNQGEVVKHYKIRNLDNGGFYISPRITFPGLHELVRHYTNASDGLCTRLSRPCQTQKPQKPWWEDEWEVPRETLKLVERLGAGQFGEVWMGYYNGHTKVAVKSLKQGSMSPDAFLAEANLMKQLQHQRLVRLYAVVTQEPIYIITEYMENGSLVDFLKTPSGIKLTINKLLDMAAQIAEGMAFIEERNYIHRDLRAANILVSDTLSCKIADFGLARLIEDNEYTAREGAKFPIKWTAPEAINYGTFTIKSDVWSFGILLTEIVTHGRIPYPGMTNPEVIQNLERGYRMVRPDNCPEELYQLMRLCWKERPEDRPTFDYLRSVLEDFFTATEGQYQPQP
T24 sequence (P28482 whole entry): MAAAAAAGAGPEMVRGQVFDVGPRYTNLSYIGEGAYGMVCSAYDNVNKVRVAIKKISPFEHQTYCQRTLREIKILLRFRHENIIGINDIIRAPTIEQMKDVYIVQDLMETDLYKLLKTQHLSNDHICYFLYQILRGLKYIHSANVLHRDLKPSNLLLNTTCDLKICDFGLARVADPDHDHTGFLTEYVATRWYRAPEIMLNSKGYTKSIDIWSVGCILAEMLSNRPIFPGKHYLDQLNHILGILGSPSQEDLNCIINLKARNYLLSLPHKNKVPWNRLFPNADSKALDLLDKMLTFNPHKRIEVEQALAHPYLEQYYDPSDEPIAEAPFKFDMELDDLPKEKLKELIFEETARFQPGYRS
T3 sequence (P31749 whole entry): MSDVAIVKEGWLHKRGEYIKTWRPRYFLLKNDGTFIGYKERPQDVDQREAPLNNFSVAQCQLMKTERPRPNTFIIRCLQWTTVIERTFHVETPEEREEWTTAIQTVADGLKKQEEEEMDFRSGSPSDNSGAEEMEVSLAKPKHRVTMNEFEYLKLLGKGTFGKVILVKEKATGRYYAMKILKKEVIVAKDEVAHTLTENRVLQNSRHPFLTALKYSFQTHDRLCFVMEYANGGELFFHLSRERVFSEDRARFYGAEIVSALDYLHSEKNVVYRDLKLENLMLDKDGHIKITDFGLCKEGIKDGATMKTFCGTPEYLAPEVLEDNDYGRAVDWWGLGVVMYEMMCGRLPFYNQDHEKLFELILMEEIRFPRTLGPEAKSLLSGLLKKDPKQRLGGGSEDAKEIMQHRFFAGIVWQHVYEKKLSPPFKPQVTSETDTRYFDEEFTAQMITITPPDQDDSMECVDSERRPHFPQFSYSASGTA
T11 sequence (P04629 33-796): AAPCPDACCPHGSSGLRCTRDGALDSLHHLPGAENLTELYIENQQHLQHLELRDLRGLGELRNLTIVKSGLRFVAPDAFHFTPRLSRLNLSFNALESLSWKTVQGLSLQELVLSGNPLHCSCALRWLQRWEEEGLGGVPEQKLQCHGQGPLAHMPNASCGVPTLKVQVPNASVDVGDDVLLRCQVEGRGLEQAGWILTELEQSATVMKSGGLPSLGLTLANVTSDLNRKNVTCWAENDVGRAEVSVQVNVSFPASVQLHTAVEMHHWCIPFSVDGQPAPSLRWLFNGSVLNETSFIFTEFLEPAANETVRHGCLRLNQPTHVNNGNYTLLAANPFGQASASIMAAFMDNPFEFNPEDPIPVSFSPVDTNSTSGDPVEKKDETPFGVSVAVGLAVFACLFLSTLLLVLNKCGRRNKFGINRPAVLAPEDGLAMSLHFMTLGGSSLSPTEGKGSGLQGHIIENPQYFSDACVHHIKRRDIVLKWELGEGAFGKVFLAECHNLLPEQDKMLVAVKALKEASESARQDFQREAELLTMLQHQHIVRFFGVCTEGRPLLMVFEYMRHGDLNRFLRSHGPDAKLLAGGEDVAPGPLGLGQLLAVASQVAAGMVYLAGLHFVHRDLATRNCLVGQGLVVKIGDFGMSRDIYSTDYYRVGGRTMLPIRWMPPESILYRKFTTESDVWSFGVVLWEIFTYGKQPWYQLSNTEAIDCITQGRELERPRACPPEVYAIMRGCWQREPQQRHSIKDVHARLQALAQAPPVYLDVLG

- inhibition at 1 µM [1]: 51%
- inhibition at 1 µM [2]: 72.8%
- inhibition at 1 µM [3]: 7.4%
- inhibition at 1 µM [4]: 72%
- inhibition at 1 µM [5]: 7.7%
- inhibition at 1 µM [6]: 6.1%
- inhibition at 1 µM [7]: 1.7%
- inhibition at 1 µM [8]: 27.5%
- inhibition at 1 µM [9]: 1.3%
- inhibition at 1 µM [10]: 1.6%
- inhibition at 1 µM [11]: 35.9%
- inhibition at 1 µM [12]: 34.7%
- inhibition at 1 µM [13]: 18.4%
- inhibition at 1 µM [14]: 5.7%
- inhibition at 1 µM [15]: 59.6%
- inhibition at 1 µM [16]: -13%
- inhibition at 1 µM [17]: ≥ 75%
- inhibition at 1 µM [18]: 2.6%
- inhibition at 1 µM [19]: 32.7%
- inhibition at 1 µM [20]: 24.7%
- inhibition at 1 µM [21]: 5.5%
- inhibition at 1 µM [22]: 3.4%
- inhibition at 1 µM [23]: 40.5%
- inhibition at 1 µM [24]: -2.2%
- inhibition at 1 µM [25]: 0.4%
- inhibition at 1 µM [26]: -4%
SMILES: c1cc(-c2onc3ccc(-c4nnn[nH]4)cc23)cc(C2CCN(C3CCC3)CC2)c1 [Compound 14, 3-(3-(1-Cyclobutylpiperidin-4-yl)phenyl)-5-(1H-tetrazol-5-yl)benzo[c]isoxazole]
- relative CYP11A1 expression vs DMSO + TET control ([27]; 10 μM): * (*p<0.05)
- relative NR0B2 expression vs DMSO + TET control ([27]; 10 μM): ns
- relative StAR expression vs DMSO + TET control ([27]; 10 μM): ns
- relative CYP11A1 expression vs DMSO + TET control ([27]; 30 μM): * (*p<0.05)
- relative NR0B2 expression vs DMSO + TET control ([27]; 30 μM): * (*p<0.05)
- relative StAR expression vs DMSO + TET control ([27]; 30 μM): * (*p<0.05)
- relative CYP11A1 expression vs DMSO + TET control ([27]; 50 μM): **** (****p<0.0001)
- relative NR0B2 expression vs DMSO + TET control ([27]; 50 μM): **** (****p<0.0001)
- relative StAR expression vs DMSO + TET control ([27]; 50 μM): **** (****p<0.0001)
- regulation of nuclear receptor SF-1 target genes ([27]; HEK293 cells with Tet-inducible SF-1, 24 h): can regulate these target genes; also recorded: able to regulate nuclear receptor SF-1 target genes; also recorded: did detect changes
